{"source": "patent US6423700B1", "about": "“17-halogenated 19-nor steroids, method and intermediates for preparing same, use as medicines and pharmaceutical compositions containing same” (Aventis Pharma S.A., priority 1998, dated 2002)", "key": {"[1]": {"test_system": "MCF-7 human mammary cells", "experiment": "Effect on the proliferation of mammary cells (MCF-7, determination of the DNA)", "type": "cell-based", "set-up": "key: Agonist: the effect of the oestradiol at 10^−10M (cell growth in the presence of oestradiol less cell growth in the presence of the solvent) determines the 100% agonist activity; Inactive: molecules inducing an identical cell growth to that observed with the solvent alone are classified as “inactive”; Inhibitor: those inducing a lower cell growth to that observed with the solvent are classified as “inhibitor”", "conditions": "7 days culture in steroid-free medium; compared with oestradiol at 10^−10M = 100% agonist activity", "experimental": "Effect on the Proliferation of Mammary Cells The proliferative activity of the molecules is studied in comparison to that of oestradiol on MCF-7 human mammary cells in culture. […] Cells undergo this severance two days before the start of the test. After 7 days culture in the presence of the products to be studied, the cell proliferation is evaluated by determination of the DNA. In each test, the effect of the oestradiol at 10^−10M (cell growth in the presence of oestradiol less cell growth in the presence of the solvent) determines the 100% agonist activity. The activity of the molecules is evaluated in comparison to this internal control."}, "[2]": {"test_system": "ovariectomized female rat", "experiment": "Bone impact study in the ovariectomized female rat at the age of 3 months (tibia BMD, uterus weight, serum cholesterol)", "type": "in vivo", "conditions": "OVX rat; for UTERUS Weight % / Cholesterol %: 4 weeks; for UTERUS Weight %: increase in % of uterus weight of OVX animals receiving solvent; for Cholesterol %: serum cholesterol change in % relative to OVX animals receiving solvent; for TIBIA BONE BMD %: OVX=0, SHAM=100", "experimental": "Bone impact study of a product in the ovariectomized female rat at the age of 3 months The compounds are tested in order to determine their effect on the bone mass and on the formation and resorption activity in the model of the ovariectomized rat at the age of 3 months. The animals are treated in a preventive fashion. [table] 1—Product to be tested: Product of Example 1. vehicle(s): corn oil, 0.5% methylcellulose number of administrations: once/day; 5 days/week for 4 weeks administration route: oral route for the product 2—Reference product: 17β oestradiol is administered by subcutaneous route at a dose of 0.1 or 0.01 mg/kg/d in solution in a mixture of corn oil-benzyl alcohol (99:1, v/v) under a volume of 0.2 ml/kg. The study is carried out with female rats ovariectomized at the age of 3 months. The animals are kept in an air-conditioned room (temperature 20° C.±2° C.) and grouped by 4 into boxes. The animals receive, ad libitum, demineralized water and compressed foods (pellets: AO4CR-10 UAR). The 3 month old female rats weighing approximately 250 g are ovariectomized under anaesthesia with Imalgene 1000, at a dose of 100 mg/kg by intraperitoneal route (i.p.) and under a volume of 1 ml/kg. They also receive Nembutal (3 mg/kg i.p. under a volume of 0.3 ml/kg). The effects of the products are determined in a preventive treatment. They are administered immediately after the ovariectomy. Animals are distributed into groups of 8. Group 1: “SHAM” control rats receiving the vehicle or vehicles. Group 2: “OVX” control rats receiving the vehicle or vehicles. Groups X: “OVX” rats receiving respectively defined doses of the product or products to be tested. At the end of 4 weeks (duration of the study) the animals are decapitated by guillotine. The serums collected after centrifugation are preserved at −20° C. A lipidic balance will be established from the serous determinations of total cholesterol, of triglycerides and of phospholipids on a 500 μl aliquot of serum. Lowering of the serous cholesterol level is expressed in % relative to the level shown by the ovariectomized animals receiving only the solvent. The uteri are removed. The latter are weighed. The increase in weight is expressed in % of the weight of the uterus of ovariectomized animals receiving only the solvent. The bone mass (BMD or bone mineral density) is measured by biphotonic dual energy X-ray absorptiometry (DEXA). The measurements are carried out on bone excized and cleaned of all soft tissue. The BMD (bone mineral density) is measured on the whole bone as well as on the metaphyseal part at the level of the proximal extremity for the left tibia. This zone is defined as being the region which is richest in trabecular bone; and consequently, is the most sensitive to variations in bone volume and bone mineral density. The results are expressed in % according to the formula: […]"}, "[3]": {"conditions": "0.3 mg/kg po, listed as Ex. 1, 0.3 mg/kg"}}, "note": "Several values for one entry are separate records, joined by “and”; a condition that tells them apart may be missing. Identical values can stand only once.", "data": [{"smiles": "C[C@]12C[C@H](c3ccc(OCCN4CCCCC4)cc3)[C@@H]3c4ccc(O)cc4CC[C@H]3[C@@H]1CC[C@H]2F", "note": "[Example 1, 17 alpha-fluoro-11 beta-[4-[2-(1-piperidinyl)ethoxy]phenyl]-estra-1,3,5(10)-trien-3-ol]", "values": [{"measurement": "ACTIVITY (proliferative activity on MCF-7 cells)", "setting": "[1]", "value": "Inactive"}, {"measurement": "UTERUS Weight %", "setting": "[2]; 0.1 mg/kg po", "value": 67, "unit": "%"}, {"measurement": "Cholesterol %", "setting": "[2]; 0.1 mg/kg po", "value": "−49", "unit": "%"}, {"measurement": "TIBIA BONE BMD %", "setting": "[2]; 0.1 mg/kg po, once/day 5 days/week 4 weeks", "value": 57, "unit": "%"}, {"measurement": "UTERUS Weight %", "setting": "[2]; [3]", "value": "70% and 41%"}, {"measurement": "Cholesterol %", "setting": "[2]; [3]", "value": "−59% and −51%"}, {"measurement": "TIBIA BONE BMD %", "setting": "[2]; 0.3 mg/kg po, once/day 5 days/week 4 weeks, listed as Ex. 1, 0.3 mg/kg", "value": "71% and 73%"}, {"measurement": "UTERUS Weight %", "setting": "[2]; 1.0 mg/kg po", "value": 93, "unit": "%"}, {"measurement": "Cholesterol %", "setting": "[2]; 1.0 mg/kg po", "value": "−61", "unit": "%"}, {"measurement": "TIBIA BONE BMD %", "setting": "[2]; 1.0 mg/kg po, once/day 5 days/week 4 weeks", "value": 72, "unit": "%"}]}, {"smiles": "COc1ccc2c(c1)CC[C@@H]1[C@@H]2[C@@H](c2ccc(OCCN3CCCC3)cc2)C[C@]2(C)[C@H](F)CC[C@@H]12", "values": [{"measurement": "melting point", "value": 132, "unit": "°C"}]}, {"smiles": "C[C@]12C[C@H](c3ccc(OCCN4CCCCC4)cc3)[C@@H]3c4ccc(O)cc4CC[C@H]3[C@@H]1CC=C2I.Cl", "values": [{"measurement": "melting point", "value": 260, "unit": "°C"}]}, {"smiles": "CC1CCN(CCOc2ccc([C@H]3C[C@]4(C)[C@H](F)CC[C@H]4[C@@H]4CCc5cc(O)ccc5[C@H]43)cc2)CC1.Cl", "values": [{"measurement": "melting point", "value": 200, "unit": "°C"}]}, {"smiles": "C[C@]12CC[C@@H]3c4ccc(O)cc4CC[C@H]3[C@@H]1CC[C@@H]2O", "note": "[Oestradiol, 17β oestradiol, reference compound]", "values": [{"measurement": "ACTIVITY (proliferative activity on MCF-7 cells)", "setting": "[1]", "value": "Agonist"}, {"measurement": "TIBIA BONE BMD %", "setting": "[2]; 0.01 mg/kg s.c., 4 weeks preventive", "value": 95, "unit": "%"}, {"measurement": "UTERUS Weight %", "setting": "[2]; 0.01 mg/kg s.c.", "value": 317, "unit": "%"}, {"measurement": "Cholesterol %", "setting": "[2]; 0.01 mg/kg s.c.", "value": "−16", "unit": "%"}, {"measurement": "TIBIA BONE BMD %", "setting": "[2]; 0.1 mg/kg s.c., 4 weeks preventive", "value": 139, "unit": "%"}, {"measurement": "UTERUS Weight %", "setting": "[2]; 0.1 mg/kg s.c.", "value": 220, "unit": "%"}, {"measurement": "Cholesterol %", "setting": "[2]; 0.1 mg/kg s.c.", "value": "−3", "unit": "%"}]}, {"smiles": "C[C@]12C[C@H](c3ccc(OCCN4CCCCC4)cc3)[C@@H]3c4ccc(O)cc4CC[C@H]3[C@@H]1CC[C@H]2F.Cl", "note": "[Example 2, 17 alpha-fluoro-11-beta-[4-[2-(1-piperidinyl)ethoxy]phenyl]-estra-1,3,5(10)-trien-3-ol hydrochloride]", "values": [{"measurement": "ACTIVITY (proliferative activity on MCF-7 cells)", "setting": "[1]", "value": "Inactive"}]}]}
